Data from the supplement of paper PMC10307832.

Experiments:
Experiment in all cases: relative viability (nuclei count vs DMSO), 5 days (fraction); higher = more cells survive
NCI-H661 = system: NCI-H661
In short: (§1)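 Values are medians from duplicate plates. Each reflects relative viability, defined as the nuclei count of treated wells over that of vehicle wells. Lung cancer cell lines in 1536-well plates were pin-tool dosed one day after seeding with one drug alone or with a fixed anchor-drug dose plus five library-drug doses (not always all listed) in √10 steps, then fixed, stained and imaged at 4× after 5 days.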

NCI-H2087 = system: NCI-H2087
In short: as §1

UMC-11 = system: UMC-11
In short: as §1

NCI-H596 = system: NCI-H596
In short: as §1

NCI-H1666 = system: NCI-H1666
In short: as §1

LCLC-97TM1 = system: LCLC-97TM1
In short: as §1

HCC-15 = system: HCC-15
In short: as §1

NCI-H1944 = system: NCI-H1944
In short: as §1

SK-MES-1 = system: SK-MES-1
In short: as §1

NCI-H1651 = system: NCI-H1651
In short: as §1

NCI-H2342 = system: NCI-H2342
In short: as §1

NCI-H650 = system: NCI-H650
In short: as §1

BEN = system: BEN
In short: as §1

LC-2-ad = system: LC-2-ad
In short: as §1

PC-3 [JPC-3] = system: PC-3 [JPC-3]
In short: as §1

NCI-H838 = system: NCI-H838
In short: as §1

NCI-H322M = system: NCI-H322M
In short: as §1

ChaGo-K-1 = system: ChaGo-K-1
In short: as §1

LXF-289 = system: LXF-289
In short: as §1

NCI-H358 = system: NCI-H358
In short: as §1

LK-2 = system: LK-2
In short: as §1

LU99A = system: LU99A
In short: as §1

With `C=C1C(=O)O[C@@H](CCCCCCCC)[C@@H]1C(=O)O` [C-75] + CCNC(=O)c1noc(-c2cc(C(C)C)c(O)cc2O)c1-c1ccc(CN2CCOCC2)cc1 [Luminespib] (partner 0.01 µM) the relative viability (NCI-H661; first compound 0.08 µM) was 0.946, the relative viability (NCI-H661; first compound 0.253 µM) was 0.905 and the relative viability (NCI-H661; first compound 0.8 µM) was 0.899. The relative viability (NCI-H661; first compound 2.53 µM) was 0.869, the relative viability (NCI-H661; first compound 8 µM) was 0.84 and the relative viability (NCI-H2087; first compound 0.08 µM) was 0.162. The relative viability (NCI-H2087; first compound 0.253 µM) was 0.218, the relative viability (NCI-H2087; first compound 0.8 µM) was 0.141 and the relative viability (NCI-H2087; first compound 2.53 µM) was 0.166. The relative viability (NCI-H2087; first compound 8 µM) was 0.217, the relative viability (UMC-11; first compound 0.08 µM) was 0.992 and the relative viability (UMC-11; first compound 0.253 µM) was 1.01. The relative viability (UMC-11; first compound 0.8 µM) was 1.03, the relative viability (UMC-11; first compound 2.53 µM) was 0.712 and the relative viability (UMC-11; first compound 8 µM) was 0.742. It also gave a relative viability (NCI-H596; first compound 0.08 µM) of 0.854, a relative viability (NCI-H596; first compound 0.253 µM) of 0.968 and a relative viability (NCI-H596; first compound 0.8 µM) of 0.937. It also gave a relative viability (NCI-H596; first compound 2.53 µM) of 0.939, a relative viability (NCI-H596; first compound 8 µM) of 0.957 and a relative viability (NCI-H1666; first compound 0.08 µM) of 0.961. It also gave a relative viability (NCI-H1666; first compound 0.253 µM) of 1.04, a relative viability (NCI-H1666; first compound 0.8 µM) of 1 and a relative viability (NCI-H1666; first compound 2.53 µM) of 0.934. It also gave a relative viability (NCI-H1666; first compound 8 µM) of 0.827, a relative viability (LCLC-97TM1; first compound 0.08 µM) of 0.731 and a relative viability (LCLC-97TM1; first compound 0.253 µM) of 0.808. It also gave a relative viability (LCLC-97TM1; first compound 0.8 µM) of 0.852, a relative viability (LCLC-97TM1; first compound 2.53 µM) of 0.452 and a relative viability (LCLC-97TM1; first compound 8 µM) of 0.801. For the same compound, the relative viability (HCC-15; first compound 0.08 µM) was 0.303, the relative viability (HCC-15; first compound 0.253 µM) was 0.271 and the relative viability (HCC-15; first compound 0.8 µM) was 0.148. For the same compound, the relative viability (HCC-15; first compound 2.53 µM) was 0.345, the relative viability (HCC-15; first compound 8 µM) was 0.196 and the relative viability (NCI-H1944; first compound 0.08 µM) was 0.777. The relative viability (NCI-H1944; first compound 0.253 µM) was 0.642, the relative viability (NCI-H1944; first compound 0.8 µM) was 0.684 and the relative viability (NCI-H1944; first compound 8 µM) was 0.761. It also gave a relative viability (SK-MES-1; first compound 0.08 µM) of 0.756, a relative viability (SK-MES-1; first compound 0.253 µM) of 0.73 and a relative viability (SK-MES-1; first compound 0.8 µM) of 0.685. It also gave a relative viability (SK-MES-1; first compound 2.53 µM) of 0.652, a relative viability (SK-MES-1; first compound 8 µM) of 0.552 and a relative viability (NCI-H1651; first compound 0.08 µM) of 0.817. For the same compound, the relative viability (NCI-H1651; first compound 0.253 µM) was 0.939, the relative viability (NCI-H1651; first compound 0.8 µM) was 0.829 and the relative viability (NCI-H1651; first compound 2.53 µM) was 0.672. For the same compound, the relative viability (NCI-H1651; first compound 8 µM) was 0.934, the relative viability (NCI-H2342; first compound 0.08 µM) was 0.798 and the relative viability (NCI-H2342; first compound 0.253 µM) was 0.802. It also gave a relative viability (NCI-H2342; first compound 0.8 µM) of 0.689, a relative viability (NCI-H2342; first compound 2.53 µM) of 0.743 and a relative viability (NCI-H2342; first compound 8 µM) of 0.68. It also gave a relative viability (NCI-H650; first compound 0.08 µM) of 0.685, a relative viability (NCI-H650; first compound 0.253 µM) of 0.737 and a relative viability (NCI-H650; first compound 0.8 µM) of 0.818. It also gave a relative viability (NCI-H650; first compound 2.53 µM) of 0.684, a relative viability (NCI-H650; first compound 8 µM) of 0.788 and a relative viability (BEN; first compound 0.08 µM) of 0.351. For the same compound, the relative viability (BEN; first compound 0.253 µM) was 0.302, the relative viability (BEN; first compound 0.8 µM) was 0.302 and the relative viability (BEN; first compound 8 µM) was 0.181. The relative viability (LC-2-ad; first compound 0.08 µM) was 1.06, the relative viability (LC-2-ad; first compound 0.253 µM) was 0.801 and the relative viability (LC-2-ad; first compound 0.8 µM) was 0.95. The relative viability (LC-2-ad; first compound 2.53 µM) was 0.797, the relative viability (LC-2-ad; first compound 8 µM) was 0.91 and the relative viability (PC-3 [JPC-3]; first compound 0.08 µM) was 0.678. It also gave a relative viability (PC-3 [JPC-3]; first compound 0.253 µM) of 0.667, a relative viability (PC-3 [JPC-3]; first compound 0.8 µM) of 0.739 and a relative viability (PC-3 [JPC-3]; first compound 2.53 µM) of 0.533. It also gave a relative viability (PC-3 [JPC-3]; first compound 8 µM) of 0.895, a relative viability (NCI-H838; first compound 0.08 µM) of 0.325 and a relative viability (NCI-H838; first compound 0.8 µM) of 0.296. The relative viability (NCI-H838; first compound 2.53 µM) was 0.286, the relative viability (NCI-H838; first compound 8 µM) was 0.238 and the relative viability (NCI-H322M; first compound 0.08 µM) was 0.928. It also gave a relative viability (NCI-H322M; first compound 0.253 µM) of 1.24, a relative viability (NCI-H322M; first compound 0.8 µM) of 0.816 and a relative viability (NCI-H322M; first compound 2.53 µM) of 0.879. For the same compound, the relative viability (NCI-H322M; first compound 8 µM) was 0.829, the relative viability (ChaGo-K-1; first compound 0.08 µM) was 0.524 and the relative viability (ChaGo-K-1; first compound 0.253 µM) was 0.587. It also gave a relative viability (ChaGo-K-1; first compound 0.8 µM) of 0.598, a relative viability (ChaGo-K-1; first compound 2.53 µM) of 0.638 and a relative viability (ChaGo-K-1; first compound 8 µM) of 0.478. It also gave a relative viability (LXF-289; first compound 0.08 µM) of 0.599, a relative viability (LXF-289; first compound 0.253 µM) of 0.66 and a relative viability (LXF-289; first compound 0.8 µM) of 0.671. It also gave a relative viability (LXF-289; first compound 2.53 µM) of 0.641, a relative viability (LXF-289; first compound 8 µM) of 0.702 and a relative viability (NCI-H358; first compound 0.08 µM) of 0.338. For the same compound, the relative viability (NCI-H358; first compound 0.253 µM) was 0.247, the relative viability (NCI-H358; first compound 0.8 µM) was 0.314 and the relative viability (NCI-H358; first compound 2.53 µM) was 0.355. The relative viability (NCI-H358; first compound 8 µM) was 0.224, the relative viability (LK-2; first compound 0.08 µM) was 0.193 and the relative viability (LK-2; first compound 0.253 µM) was 0.195. The relative viability (LK-2; first compound 0.8 µM) was 0.191, the relative viability (LK-2; first compound 2.53 µM) was 0.185 and the relative viability (LK-2; first compound 8 µM) was 0.202. For the same compound, the relative viability (LU99A; first compound 0.08 µM) was 0.209, the relative viability (LU99A; first compound 0.253 µM) was 0.297 and the relative viability (LU99A; first compound 0.8 µM) was 0.251. The relative viability (LU99A; first compound 2.53 µM) was 0.252 and the relative viability (LU99A; first compound 8 µM) was 0.286.
